Source: US6320024A, “Method for design of substances that enhance memory and improve the quality of life” (priority 1999, dated 2001)
Ends that are not written are not given here. Peptide text beside a SMILES is read from it.

Assays:
CD-1 male mice [1] = assay: Amnestic effect on retention of footshock active avoidance training (FAAT) in T-maze, well-trained mice, post-training ICV administration; assay type: in vivo; details: for amnestic effect on retention of FAAT: well-trained mice, post-training ICV, 6.14 nmol of peptide per mouse except dose-response curves, retention tested one week later; for molar amnestic efficacy / potency compared with another peptide: dose-response curves or FIG. 19
Protocol: (§1) After 1 week in the laboratory, CD-1 male mice obtained from Charles River Breeding Laboratories were caged individually 24-28 hours prior to training and remained singly housed until retention was tested one week later. Animal rooms were on a 12 hour light/dark cycle with lights going on at the hour of 0600. Median body weight was 35 g, with a range of 33-38 g. Mice were assigned randomly to groups of 15 in the experiments reported in FIGS. 1-18 and groups of 10 for the dose-response curves (FIGS. 19 and 20) and were trained and tested between the hours of 0700 and 1500.
(§2) With the exception of Val Phe and Phe Val from Sigma, all peptides used in these studies were synthesized and analyzed to establish purity by standard methods at the Beckman Research Institute. Peptides were dissolved in: (1) saline; (2) 8% vol/vol dimethyl sulfoxide: (3) glacial acetic acid neutralized with […]; or (4) NaOH neutralized with HCl.
With exception of dose-response curves, the experiments reported below tested whether or not there was an amnestic: effect at 6.14 nmol of peptide per mouse.
The T-maze used for footshock active avoidance training (FAAT) consisted of a black plastic alley (46 cm long) with a start box at one end and two goal boxes (17.5 cm long) at the other. The start box was separated from the alley by a plastic guillotine door that prevented movement down the alley until training began. The alley was 12.5 cm deep and 9.8 cm wide. An electrifiable stainless steel rod floor ran throughout the maze.
Mice were not permitted to explore the maze before training. A block of training trials began when a mouse was placed in the start box. The guillotine door was raised and a muffled doorbell-type buzzer sounded simultaneously; footshock was 5 seconds later through a scrambled grid floor shocker (Colbourn Instruments, Model E13-08). The goal box first entered during the first set of trials was designated as "incorrect", and footshock was continued until the mouse entered the other goal box, which in all subsequent trials was designated "correct" for the particular mouse. At the end of each group of trials, the mouse was removed to its home cage.
As training proceeded, a mouse made one of two types of responses. A response latency longer than 5 seconds was classed as an escape from the footshock. A response latency less than or equal to 5 seconds was considered an avoidance, since the mouse avoided receiving a footshock. Two exclusion criteria were applied to reduce learning variability among mice, as follows. On the first training trials, mice with escape latencies greater than 20 seconds were discarded. Mice not having at least one errorless escape latency between 1.5 and 3.5 seconds on training trials 3 or 4 were excluded. […] Mice received five such training trials. One week after training and post-trial administration of vehicle alone or vehicle containing test substance, T-maze training was resumed until each mouse made five avoidance responses in six consecutive training trials (trials to criterion). The recall score was taken to be the percentage of tested mice remembering original training.
In these instances, training was performed under conditions that tend to maximize learning (sound intensity, 65 decibels; footshock current, 0.35 mA; intertrial interval, 45 seconds).

CD-1 male mice [2] = assay: Memory-enhancing effect on retention of FAAT in T-maze, weakly trained mice (poor retention in vehicle controls), post-training ICV administration; assay type: in vivo
Protocol: as §1
as §2, with “HCl. […] Analysis of variance showing insignificant differences among the latter, the value for the most frequently employed (No. 2 above) was used for comparison with groups receiving test peptides.” for “HCl.”
The T-maze used for footshock active avoidance training (FAAT) consisted of a black plastic alley (46 cm long) with a start box at one end and two goal boxes (17.5 cm long) at the other. […]

CD-1 male mice [3] = details: cited from earlier work; for amnestic effect on retention of FAAT (literature): post-training ICV in mice, references 1 and 12
[4] = system: hippocampal neurons in culture; details: reference 17; cited from earlier work

NC(=O)CC[C@H](N)C(=O)N[C@@H](Cc1ccccc1)C(=O)N[C@@H](Cc1ccccc1)C(=O)NCC(=O)O [Gln Phe Phe Gly] (H-QFFG-OH)
amnestic effect on retention of FAAT (CD-1 male mice [1]): amnestic
memory-enhancing potency compared with other peptides (CD-1 male mice [2]; poor retention in vehicle controls): by far the most potent

CC(C)[C@H](N)C(=O)N[C@@H](Cc1ccccc1)C(=O)N[C@@H](Cc1ccccc1)C(=O)O [Val Phe Phe] (H-Val-Phe-Phe-OH)
molar amnestic efficacy / potency compared with another peptide (CD-1 male mice [1]): not significantly different from that of the β-A4 homologue
amnestic effect on retention of FAAT (CD-1 male mice [1]): amnestic
memory-enhancing effect (CD-1 male mice [2]; weakly trained animals, ICV): memory enhancer

CC(C)[C@H](N)C(=O)N[C@@H](Cc1ccccc1)C(=O)N[C@H](C(=O)O)[C@@H](C)O [Val Phe Thr] (H-Val-Phe-Thr-OH)
amnestic effect on retention of FAAT (CD-1 male mice [1]): amnestic

His Ser Asp Ala Val Phe Thr Asp Asn Tyr Thr Arg Leu Lys Gln Met Ala Val Lys Lys Tyr Leu Asn Ser Ile Leu Asn-NH2 (HSDAVFTDNYTRLKQMAVKKYLNSILN-NH2) [VIP]
amnestic effect on retention of FAAT (literature) (CD-1 male mice [3]): amnestic

KLVFFAE [Lys Leu Val Phe Phe Ala Glu]
amnestic effect on retention of FAAT (CD-1 male mice [1]): not amnestic

Pro Arg Pro Gly Pro Gln Gln Phe Phe Gly Leu Met-NH2 (PRPGPQQFFGLM-NH2) [Substance Pro]
effect on trophic and toxic effects of β-A4 [4]: counteract trophic and toxic effects of β-A4

VFFAE [Val Phe Phe Ala Glu]
molar amnestic efficacy / potency compared with another peptide (CD-1 male mice [1]): lesser potency
amnestic effect on retention of FAAT (CD-1 male mice [1]): amnestic

VFFAEDVGSNK [β-(18-28)]
amnestic effect on retention of FAAT (literature) (CD-1 male mice [3]): amnestic

β-(1-18): β-A4 fragment of reference 1, probably misprint of β-(1-28)
amnestic activity at lower dose (literature) (CD-1 male mice [3]; 1.5 nmol per mouse, reference 1): active
